# Laboratory results as given in patent US20230391786A1, “cGAS INHIBITORS” (Eli Lilly and Company, priority 2022, published 2023).
# Test system: cGAS activity in THP1 cells (IFNb as marker)
# Assay: Cellular assay to measure cGAS activity (IFNb production in PMA-differentiated THP1 cells stimulated by RDG-Adenovirus-GFP)
# Type: cell-based, human
# Settings: Homo sapiens, THP-1, THP1 cells, PMA differentiated, RDG-Adenovirus-GFP 1000 MOI, IFNb AlphaLISA, overnight incubation; read-out: IC50 (μM), Cellular assay for Compounds 95-348
# Description: Cellular assay to measure cGAS activity: Use THP1 cell line from ATCC to determine inhibition of cGAS activity by test compounds in human cells. Plate cells on 96-well plates at 0.2×10^6/well and differentiate with phorbol myristate acetate (PMA) at 37° C./5% CO2. After 24 hours, replace PMA containing media with media lacking PMA and further incubate overnight. Stimulate cells were then by RDG-Adenovirus-GFP (Vector Biolabs #1768) at 1000 MOI for 4 hours prior to the addition of test compounds. After overnight incubation, transfer 10 μL of the media from each well to a new plate for IFNb analysis as a marker for cGAS activity. Measure quantification of IFNb with an IFNb AlphaLISA Detection kit (Perkin Elmer AL3133F) by mixing the acceptor beads with the cell supernatant followed by the addition of the biotinylated antibody and donor beads. Measure the relative fluorescence signal produced from the interaction of the donor and acceptor beads by a PHERAStar AlphaLISA protocol and evaluate the inhibitory effect of a compound by plotting specific inhibition of IFNb production against log concentration of the test compound. Calculate IC50 values using a 4-parameter non-linear logistic equation (y=(S0+((SInf−S0)/(1+((qAC50/x)^nHill))))).
row,IC50 [µM],Compound
1,2.32,"N#CCOc1cc(Cl)c(Cl)c2[nH]nc(-c3cn[nH]c3)c12 [Example 249, 2-[[6,7-Dichloro-3-(1H-pyrazol-4-yl)-1H-indazol-4-yl]oxy]acetonitrile]"
2,0.761,"O=C(CO)NCc1[nH]c2c(Cl)c(Cl)ccc2c1-c1cn[nH]c1 [Example 162, N-[[6,7-Dichloro-3-(1H-pyrazol-4-yl)-1H-indol-2-yl]methyl]-2-hydroxy-acetamide]"
3,2.99,"Cc1nc(C(=O)N2CCn3c(c(-c4cn[nH]c4)c4c(OCC#N)cc(Cl)c(Cl)c43)C2)no1 [Example 282, 2-((6,7-Dichloro-2-(5-methyl-1,2,4-oxadiazole-3-carbonyl)-10-(1H-pyrazol-4-yl)-1,2,3,4-tetrahydropyrazino[1,2-a]indol-9-yl)oxy)acetonitrile]"
4,1.29,"OCC(CO)COc1cc(Cl)c(Cl)c2[nH]cc(-c3cn[nH]c3)c12 [Example 194, 2-[[6,7-Dichloro-3-(1H-pyrazol-4-yl)-1H-indol-4-yl]oxymethyl]propane-1,3-diol]"
5,2.1,OCCn1cc(-n2cc(-c3cn[nH]c3)c3ccc(Cl)cc32)nn1 [Example 229]
6,> 10,Cn1ncnc1COCC(=O)N1CCn2c(c(-c3cn[nH]c3)c3c(OCC#N)cc(Cl)c(Cl)c32)C1 [Example 181]
7,> 10,"NC1CCn2c1c(-c1cn[nH]c1)c1ccc(Cl)c(Cl)c12 (stereo not shown) [Example 241, 5,6-Dichloro-9-(1H-pyrazol-4-yl)-2,3-dihydro-1H-pyrrolo[1,2-a]indol-1-amine]"

# Same assay, conditions: THP1 cells, PMA differentiated, RDG-Adenovirus-GFP 1000 MOI, IFNb AlphaLISA, overnight incubation; read-out: IC50 (μM), Cellular assay for Compounds 95-348
row,IC50 [µM],Compound
1,4.05,"O=C1NCC(C(=O)N2CCn3c(c(-c4cn[nH]c4)c4ccc(Cl)c(Cl)c43)C2)O1 (single isomer, unassigned) [Example 260, 5-[6,7-Dichloro-10-(1H-pyrazol-4-yl)-3,4-dihydro-1H-pyrazino[1,2-a]indole-2-carbonyl]oxazolidin-2-one]"

# Target: recombinant human cGAS (Homo sapiens (Human), UniProt Q8N884)
# Sequence (Q8N884 whole entry): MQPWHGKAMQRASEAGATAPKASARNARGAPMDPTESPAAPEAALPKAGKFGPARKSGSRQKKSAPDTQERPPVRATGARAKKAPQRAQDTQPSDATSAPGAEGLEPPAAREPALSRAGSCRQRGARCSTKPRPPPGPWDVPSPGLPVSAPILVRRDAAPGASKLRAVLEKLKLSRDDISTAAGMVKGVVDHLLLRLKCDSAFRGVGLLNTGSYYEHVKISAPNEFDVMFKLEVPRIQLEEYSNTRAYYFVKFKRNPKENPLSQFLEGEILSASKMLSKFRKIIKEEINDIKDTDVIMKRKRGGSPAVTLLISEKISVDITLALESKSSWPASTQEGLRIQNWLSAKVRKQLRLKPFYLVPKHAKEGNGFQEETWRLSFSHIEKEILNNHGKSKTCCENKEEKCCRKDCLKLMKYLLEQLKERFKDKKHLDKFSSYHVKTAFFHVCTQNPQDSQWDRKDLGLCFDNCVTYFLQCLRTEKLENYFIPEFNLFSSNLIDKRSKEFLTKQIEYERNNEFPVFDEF
# Assay: In vitro inhibition assay of cGAS activity (cGAMP production, RapidFire mass spectrometry)
# Type: biochemical
# Settings: 10 nM recombinant human cGAS, 60 nM 75-bp dsDNA, ATP, GTP, room temperature 3 hours, read-out: IC50 (μM), In vitro inhibition assay for Compounds 1-94
# Method in brief: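 Full-length His6-tagged human cGAS (10 nM, E. coli-expressed) was incubated 3 h at room temperature with 60 nM 75-bp dsDNA, ATP, 50 μM GTP and compound at pH 7.5 with 5 mM MgCl2. cGAMP formation was measured by RapidFire mass spectrometry, and IC50 was taken from a 4-parameter logistic fit.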
row,Compound,IC50 [µM]
1,"CN1CCn2c(c(-c3cn[nH]c3)c3c(NCC#N)cc(Cl)c(Cl)c32)C1=O [Example 86, 2-[[6,7-Dichloro-2-methyl-1-oxo-10-(1H-pyrazol-4-yl)-3,4-dihydropyrazino[1,2-a]indol-9-yl]amino]acetonitrile]",0.0485
2,"Cc1c(-c2cn[nH]c2)c2ccc(Cl)c(Cl)c2n1C [Example 3, 6,7-Dichloro-1,2-dimethyl-3-(1H-pyrazol-4-yl)indole]",0.0614
3,"CN1CCn2c(c(-c3cn[nH]c3)c3c(NCCO)cc(Cl)c(Cl)c32)C1=O [Example 87, 6,7-Dichloro-9-((2-hydroxyethyl)amino)-2-methyl-10-(1H-pyrazol-4-yl)-3,4-dihydropyrazino[1,2-a]indol-1(2H)-one]",0.029
4,"O=C(O)Cn1cc(-n2cc(-c3cn[nH]c3)c3ccc(Cl)c(Cl)c32)cn1 [Example 36, 2-[4-[6,7-Dichloro-3-(1H-pyrazol-4-yl)indol-1-yl]pyrazol-1-yl]acetic acid]",0.0535
5,"NC(=O)COc1cc(Cl)c(F)c2[nH]cc(-c3cn[nH]c3)c12 [Example 71, 2-[[6-Chloro-7-fluoro-3-(1H-pyrazol-4-yl)-1H-indol-4-yl]oxy] acetamide]",0.0463
6,"N#CCOc1cc(Cl)c(Cl)c2c1c(-c1cn[nH]c1)c1n2CCNC1 [Example 88, 2-((6,7-Dichloro-10-(1H-pyrazol-4-yl)-1,2,3,4-tetrahydropyrazino[1,2-a]indol-9-yl)oxy)acetonitrile]",0.0219
7,"CC(=O)NCc1[nH]c2c(Cl)c(Cl)ccc2c1-c1cn[nH]c1 [Example 5, N-[[6,7-Dichloro-3-(1H-pyrazol-4-yl)-1H-indol-2-yl]methyl]acetamide]",0.0246

# Further lines, results first:
row,IC50 [µM],Compound
1,0.0965,"O=C1CCc2c(-c3cn[nH]c3)c3ccc(Cl)c(Cl)c3n21 [Example 68, 7,8-Dichloro-4-(1H-pyrazol-4-yl)-2,3-dihydropyrrolo[1,2-a] indol-1-one]"
2,0.062,"OCCC1CCc2c(-c3cn[nH]c3)c3ccc(Cl)c(Cl)c3n2C1 (stereo not shown) [Example 73, 2-[3,4-Dichloro-10-(1H-pyrazol-4-yl)-6,7,8,9-tetrahydropyrido[1,2-a]indol-7-yl] ethanol]"
3,0.0531,"O=C1Cn2c(c(-c3cn[nH]c3)c3ccc(Cl)c(Cl)c32)CN1 [Example 8, 6,7-Dichloro-10-(1H-pyrazol-4-yl)-2,4-dihydro-1H-pyrazino[1,2-a]indol-3-one]"
4,0.0912,"O=C(Cn1cncn1)N1CCn2c(c(-c3cn[nH]c3)c3ccc(Cl)c(Cl)c32)C1 [Example 43, 1-[6,7-dichloro-10-(1H-pyrazol-4-yl)-3,4-dihydro-1H-pyrazino[1,2-a]indol-2-yl]-2-(1,2,4-triazol-1-yl)ethanone]"
5,0.0405,"CCOc1cc(Cl)c(Cl)c2c1c(-c1cn[nH]c1)c1n2CCN(C(=O)CO)C1 [Example 91, 1-[6,7-Dichloro-9-ethoxy-10-(1H-pyrazol-4-yl)-3,4-dihydro-1H-pyrazino[1,2-a]indol-2-yl]-2-hydroxy-ethanone]"
6,0.0273,"COCC(=O)N1CCn2c(c(-c3cn[nH]c3)c3ccc(Cl)c(Cl)c32)C1 [Example 42, 1-[6,7-dichloro-10-(1H-pyrazol-4-yl)-3,4-dihydro-1H-pyrazino[1,2-a]indol-2-yl]-2-methoxy-ethanone]"
7,0.0117,"O=C(O)C1CCn2c(c(-c3cn[nH]c3)c3ccc(Cl)c(Cl)c32)C1 (single isomer, unassigned) [Example 13, 3,4-Dichloro-10-(1H-pyrazol-4-yl)-6,7,8,9-tetrahydropyrido[1,2-a]indole-8-carboxylic acid]"
8,0.0268,"O=C(CO)N1CCn2c(c(-c3cn[nH]c3)c3ccc(Cl)c(Cl)c32)C1 [Example 53, 1-[6,7-dichloro-10-(1H-pyrazol-4-yl)-3,4-dihydro-1H-pyrazino[1,2-a]indol-2-yl]-2-hydroxy-ethanone]"

# Same assay, conditions: 10 nM recombinant human cGAS, 60 nM 75-bp dsDNA, ATP, GTP, room temperature 3 hours, read-out: IC50 (μM), In vitro inhibition assay for Compounds 95-348
row,Compound,IC50 [µM]
1,"N#CCOc1cc(Cl)c(Cl)c2[nH]nc(-c3cn[nH]c3)c12 [Example 249, 2-[[6,7-Dichloro-3-(1H-pyrazol-4-yl)-1H-indazol-4-yl]oxy]acetonitrile]",0.0306
2,"O=C(CO)NCc1[nH]c2c(Cl)c(Cl)ccc2c1-c1cn[nH]c1 [Example 162, N-[[6,7-Dichloro-3-(1H-pyrazol-4-yl)-1H-indol-2-yl]methyl]-2-hydroxy-acetamide]",0.0152
3,"Cc1nc(C(=O)N2CCn3c(c(-c4cn[nH]c4)c4c(OCC#N)cc(Cl)c(Cl)c43)C2)no1 [Example 282, 2-((6,7-Dichloro-2-(5-methyl-1,2,4-oxadiazole-3-carbonyl)-10-(1H-pyrazol-4-yl)-1,2,3,4-tetrahydropyrazino[1,2-a]indol-9-yl)oxy)acetonitrile]",0.00896
4,"OCC(CO)COc1cc(Cl)c(Cl)c2[nH]cc(-c3cn[nH]c3)c12 [Example 194, 2-[[6,7-Dichloro-3-(1H-pyrazol-4-yl)-1H-indol-4-yl]oxymethyl]propane-1,3-diol]",0.0184
5,"O[C@@H]1CC[C@@H](Oc2cc(Cl)c(Cl)c3[nH]cc(-c4cn[nH]c4)c23)C1 (racemic) [Example 99, trans-3-((6,7-Dichloro-3-(1H-pyrazol-4-yl)-1H-indol-4-yl)oxy)cyclopentan-1-ol (racemic mixture)]",0.0593

# Now from value to compound:
row,IC50 [µM],Compound
1,0.0115,"O=C1NCC(C(=O)N2CCn3c(c(-c4cn[nH]c4)c4ccc(Cl)c(Cl)c43)C2)O1 (single isomer, unassigned) [Example 260, 5-[6,7-Dichloro-10-(1H-pyrazol-4-yl)-3,4-dihydro-1H-pyrazino[1,2-a]indole-2-carbonyl]oxazolidin-2-one]"
2,0.0682,"CCC(=O)NC(C)C(=O)N1CCn2c(c(-c3cn[nH]c3)c3ccc(Cl)c(Cl)c32)C1 (stereo not shown) [Example 329, N-(1-(6,7-Dichloro-10-(1H-pyrazol-4-yl)-3,4-dihydropyrazino[1,2-a]indol-2(1H)-yl)-1-oxopropan-2-yl)propionamide]"
3,0.0698,"CC(=O)N1CCOCC1C(=O)N1CCn2c(c(-c3cn[nH]c3)c3ccc(Cl)c(Cl)c32)C1 (stereo not shown) [Example 109, 1-(3-(6,7-Dichloro-10-(1H-pyrazol-4-yl)-1,2,3,4-tetrahydropyrazino[1,2-a]indole-2-carbonyl)morpholino)ethan-1-one]"
4,0.06,"Cc1noc(COCC(=O)N2CCn3c(c(-c4cn[nH]c4)c4ccc(Cl)c(Cl)c43)C2)n1 [Example 322, 1-(6,7-Dichloro-10-(1H-pyrazol-4-yl)-3,4-dihydropyrazino[1,2-a]indol-2(1H)-yl)-2-((3-methyl-1,2,4-oxadiazol-5-yl)methoxy)ethan-1-one]"
5,0.0626,"O=C(CCc1ncc(F)cn1)N1CCn2c(c(-c3cn[nH]c3)c3ccc(Cl)c(Cl)c32)C1 [Example 325, 1-(6,7-Dichloro-10-(1H-pyrazol-4-yl)-3,4-dihydropyrazino[1,2-a]indol-2(1H)-yl)-3-(5-fluoropyrimidin-2-yl)propan-1-one]"
6,0.055,"CCN1C(=O)CCC1C(=O)N1CCn2c(c(-c3cn[nH]c3)c3ccc(Cl)c(Cl)c32)C1 (stereo not shown) [Example 320, 5-(6,7-Dichloro-10-(1H-pyrazol-4-yl)-1,2,3,4-tetrahydropyrazino[1,2-a]indole-2-carbonyl)-1-ethylpyrrolidin-2-one]"
7,0.0503,"O=C1COCCN1CC(=O)N1CCn2c(c(-c3cn[nH]c3)c3ccc(Cl)c(Cl)c32)C1 [Example 315, 4-(2-(6,7-Dichloro-10-(1H-pyrazol-4-yl)-3,4-dihydropyrazino[1,2-a]indol-2(1H)-yl)-2-oxoethyl)morpholin-3-one]"
8,0.0489,"CN1CCN(CC(=O)N2CCn3c(c(-c4cn[nH]c4)c4ccc(Cl)c(Cl)c43)C2)C1=O [Example 313, 1-(2-(6,7-Dichloro-10-(1H-pyrazol-4-yl)-3,4-dihydropyrazino[1,2-a]indol-2(1H)-yl)-2-oxoethyl)-3-methylimidazolidin-2-one]"
9,0.0801,"CN(C)C1(CC(=O)N2CCn3c(c(-c4cn[nH]c4)c4ccc(Cl)c(Cl)c43)C2)COC1 [Example 330, 1-(6,7-Dichloro-10-(1H-pyrazol-4-yl)-3,4-dihydropyrazino[1,2-a]indol-2(1H)-yl)-2-(3-(dimethylamino)oxetan-3-yl)ethan-1-one]"
